Laboratory results: patent US9161541B2, “Pesticide composition comprising propamocarb-hydrochloride and an insecticide active substance” (priority 2006, dated 2015)

Key:
Type in all cases: in vivo
[1] = system: larvae of the beet army worm (Spodoptera exigua); test: Spodoptera exigua test (cabbage leaf dip, larval mortality); conditions: mortality after 6 days; rate of application 100 ppm
Experimental: (§1) Solvent: 7 parts by weight of dimethylformamide
(§2) Emulsifier: 2 parts by weight of alkylaryl polyglycolether
(§3) To produce a suitable preparation of active compound, 1 part by weight of active compound is mixed with the stated amount of solvent and emulsifier, and the concentrate is diluted with emulsifier-containing water to the desired concentration. Cabbage leaves (Brassica oleracea) are treated by being dipped into the preparation of the active compound at the desired concentration and are infested with larvae of the beet army worm (Spodoptera exigua) as long as the leaves are still moist. After a period of time of 6 days, the mortality is determined. 100% means that all the caterpillars have been killed; 0% means that none of the caterpillars have been killed.

[2] = system: larvae of the fall army worm (Spodoptera frugiperda); test: Spodoptera frugiperda test (cabbage leaf dip, larval mortality); conditions: mortality after 4 days
Experimental: as §1, §2
as §3, with “fall” for “beet”, “frugiperda)” for “exigua)”, “4” for “6”

[3] = system: larvae of the diamond black moth Plutella xylostella; test: Plutella xylostella test (cabbage leaf dip, larval mortality); conditions: mortality after 4 days
Experimental: as §1, §2
as §3, with “diamond black moth Plutella xylostella” for “beet army worm (Spodoptera exigua)”, “4” for “6”

CN/C(=N\[N+](=O)[O-])NCc1cnc(Cl)s1 [clothianidin]
Efficacy (%) [1]: 45%
Efficacy (%) ([2]; rate of application 20 ppm): 0%

O=[N+]([O-])NC1=NCCN1Cc1ccc(Cl)nc1 [imidacloprid]
Efficacy (%) ([2]; rate of application 20 ppm): 0%

CCCOC(=O)NCCCN(C)C.Cl [propamocarb, propyl[3-(dimethylamino)propyl]carbamate hydrochloride]
Efficacy (%) [1]: 0%
Efficacy (%) ([2]; rate of application 100 ppm): 0%
Efficacy (%) ([2]; rate of application 200 ppm): 0%
Efficacy (%) ([3]; rate of application 200 ppm): 25%

N#C/N=C1\SCCN1Cc1ccc(Cl)nc1 [thiacloprid]
Efficacy (%) ([3]; rate of application 20 ppm): 20%

CN1COCN(Cc2cnc(Cl)s2)/C1=N\[N+](=O)[O-] [thiamethoxam]
Efficacy (%) ([2]; rate of application 100 ppm): 0%
